Data on 4 molecules can be found in ChEMBL document CHEMBL5696442, “Discovery of type II inhibitors of TGFβ-activated kinase 1 (TAK1) and mitogen-activated protein kinase kinase kinase kinase 2 (MAP4K2)” (J Med Chem, 2015).

SMILES strings stand for the structures.

For experiment [1], the target named is Phosphatidylinositol 4,5-bisphosphate 3-kinase catalytic subunit beta isoform (Homo sapiens) (UniProt P42338). The experiment in a line: Inhibition of PIK3CB ATP labeling site in human A-375 cells at 0.5 uM by KiNativ Profiling analysis relative to control. The class given is cell-based.
Sequence of Phosphatidylinositol 4,5-bisphosphate 3-kinase catalytic subunit beta isoform (Homo sapiens) (P42338 whole entry, looked up, canonical isoform): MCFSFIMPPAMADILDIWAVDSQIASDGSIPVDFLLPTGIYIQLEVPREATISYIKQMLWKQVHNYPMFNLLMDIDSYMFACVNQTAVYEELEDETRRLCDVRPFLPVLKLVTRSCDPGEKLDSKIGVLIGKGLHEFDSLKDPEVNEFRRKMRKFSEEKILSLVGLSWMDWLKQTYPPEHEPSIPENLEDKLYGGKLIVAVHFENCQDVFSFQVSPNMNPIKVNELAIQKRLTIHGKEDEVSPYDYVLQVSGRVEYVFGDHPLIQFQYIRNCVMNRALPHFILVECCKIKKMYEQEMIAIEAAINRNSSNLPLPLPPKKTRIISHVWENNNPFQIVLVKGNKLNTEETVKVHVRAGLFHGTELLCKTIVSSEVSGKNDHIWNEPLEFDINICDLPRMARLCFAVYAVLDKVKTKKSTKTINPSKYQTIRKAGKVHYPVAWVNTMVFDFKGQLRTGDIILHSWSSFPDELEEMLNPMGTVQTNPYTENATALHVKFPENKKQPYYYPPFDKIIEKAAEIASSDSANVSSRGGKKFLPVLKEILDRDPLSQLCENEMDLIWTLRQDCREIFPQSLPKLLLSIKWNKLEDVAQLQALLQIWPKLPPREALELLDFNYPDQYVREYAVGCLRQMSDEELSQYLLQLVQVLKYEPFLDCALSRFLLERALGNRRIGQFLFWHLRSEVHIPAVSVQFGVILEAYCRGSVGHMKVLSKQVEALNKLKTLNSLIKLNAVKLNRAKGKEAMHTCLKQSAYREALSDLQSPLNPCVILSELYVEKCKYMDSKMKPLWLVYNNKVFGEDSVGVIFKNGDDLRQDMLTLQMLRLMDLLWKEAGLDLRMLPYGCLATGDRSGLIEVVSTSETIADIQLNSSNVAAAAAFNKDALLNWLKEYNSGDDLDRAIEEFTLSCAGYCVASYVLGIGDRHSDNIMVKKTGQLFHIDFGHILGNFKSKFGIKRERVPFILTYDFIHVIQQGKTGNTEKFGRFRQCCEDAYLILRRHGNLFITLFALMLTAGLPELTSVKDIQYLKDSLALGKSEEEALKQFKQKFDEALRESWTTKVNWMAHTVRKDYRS
The target of experiment [2] is Dual specificity mitogen-activated protein kinase kinase 1 (Homo sapiens) (UniProt Q02750). Kind of experiment: Inhibition of MAP2K1 Lys2 labeling site harbouring DVKPSNILVNSR in human A-375 cells at 0.5 uM by KiNativ Profiling analysis relative to control. The class given is cell-based.
Sequence of Dual specificity mitogen-activated protein kinase kinase 1 (Homo sapiens) (Q02750 whole entry): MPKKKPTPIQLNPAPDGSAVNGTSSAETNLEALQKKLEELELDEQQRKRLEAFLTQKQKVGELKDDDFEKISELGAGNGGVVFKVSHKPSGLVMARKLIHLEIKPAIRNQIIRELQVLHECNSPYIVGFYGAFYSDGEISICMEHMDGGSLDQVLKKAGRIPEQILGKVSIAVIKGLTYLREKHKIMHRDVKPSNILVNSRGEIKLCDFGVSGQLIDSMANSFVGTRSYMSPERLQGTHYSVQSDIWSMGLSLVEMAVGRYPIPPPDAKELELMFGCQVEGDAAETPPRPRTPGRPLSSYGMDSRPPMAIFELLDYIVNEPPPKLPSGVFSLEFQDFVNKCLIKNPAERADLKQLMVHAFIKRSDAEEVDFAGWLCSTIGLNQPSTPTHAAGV
The target in experiment [3] is Mitogen-activated protein kinase kinase kinase 20 (Homo sapiens, UniProt Q9NYL2). The experiment in a line: Inhibition of ZAK Lys1 labeling site in human A-375 cells at 0.05 uM by KiNativ Profiling analysis relative to control. The class given is cell-based.
Experiment [4] has as its target Serine/threonine-protein kinase MRCK beta (Homo sapiens) (UniProt Q9Y5S2). The experiment in a line: Inhibition of MRCKb in human A-375 cells at 0.5 uM by KiNativ Profiling analysis relative to control. It is filed as cell-based.
The target of experiment [5] is T1, Serine/threonine-protein kinase Chk1 (Homo sapiens) (UniProt O14757).
T1 sequence (whole entry): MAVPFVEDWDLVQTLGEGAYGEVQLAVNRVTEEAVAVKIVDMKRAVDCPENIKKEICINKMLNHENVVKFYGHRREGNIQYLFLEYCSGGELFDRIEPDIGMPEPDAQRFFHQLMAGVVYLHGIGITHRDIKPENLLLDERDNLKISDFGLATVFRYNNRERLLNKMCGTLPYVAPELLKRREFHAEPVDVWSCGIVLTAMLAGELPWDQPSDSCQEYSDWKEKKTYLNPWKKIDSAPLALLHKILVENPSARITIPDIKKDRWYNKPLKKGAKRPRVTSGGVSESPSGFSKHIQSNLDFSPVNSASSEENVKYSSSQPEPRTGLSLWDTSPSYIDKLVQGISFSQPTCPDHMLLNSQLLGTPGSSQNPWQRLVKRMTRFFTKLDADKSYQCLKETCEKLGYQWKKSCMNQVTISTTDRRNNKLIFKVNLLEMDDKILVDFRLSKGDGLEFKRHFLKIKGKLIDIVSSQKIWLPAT
The experiment in a line: Inhibition of CHK1 Lys2 labeling site harbouring DIKPENLLLDERDNLK in human A-375 cells at 0.05 uM by KiNativ Profiling analysis relative to control. It is filed as cell-based.

In experiment [6] the target is Serine/threonine-protein kinase 10 (Homo sapiens) (UniProt O94804). The experiment in a line: Inhibition of LOK Lys1 labeling site harbouring ETGALAAAKVIETK in human A-375 cells at 0.5 uM by KiNativ Profiling analysis relative to control. It is filed as cell-based.
Sequence of Serine/threonine-protein kinase 10 (Homo sapiens) (O94804 whole entry, looked up): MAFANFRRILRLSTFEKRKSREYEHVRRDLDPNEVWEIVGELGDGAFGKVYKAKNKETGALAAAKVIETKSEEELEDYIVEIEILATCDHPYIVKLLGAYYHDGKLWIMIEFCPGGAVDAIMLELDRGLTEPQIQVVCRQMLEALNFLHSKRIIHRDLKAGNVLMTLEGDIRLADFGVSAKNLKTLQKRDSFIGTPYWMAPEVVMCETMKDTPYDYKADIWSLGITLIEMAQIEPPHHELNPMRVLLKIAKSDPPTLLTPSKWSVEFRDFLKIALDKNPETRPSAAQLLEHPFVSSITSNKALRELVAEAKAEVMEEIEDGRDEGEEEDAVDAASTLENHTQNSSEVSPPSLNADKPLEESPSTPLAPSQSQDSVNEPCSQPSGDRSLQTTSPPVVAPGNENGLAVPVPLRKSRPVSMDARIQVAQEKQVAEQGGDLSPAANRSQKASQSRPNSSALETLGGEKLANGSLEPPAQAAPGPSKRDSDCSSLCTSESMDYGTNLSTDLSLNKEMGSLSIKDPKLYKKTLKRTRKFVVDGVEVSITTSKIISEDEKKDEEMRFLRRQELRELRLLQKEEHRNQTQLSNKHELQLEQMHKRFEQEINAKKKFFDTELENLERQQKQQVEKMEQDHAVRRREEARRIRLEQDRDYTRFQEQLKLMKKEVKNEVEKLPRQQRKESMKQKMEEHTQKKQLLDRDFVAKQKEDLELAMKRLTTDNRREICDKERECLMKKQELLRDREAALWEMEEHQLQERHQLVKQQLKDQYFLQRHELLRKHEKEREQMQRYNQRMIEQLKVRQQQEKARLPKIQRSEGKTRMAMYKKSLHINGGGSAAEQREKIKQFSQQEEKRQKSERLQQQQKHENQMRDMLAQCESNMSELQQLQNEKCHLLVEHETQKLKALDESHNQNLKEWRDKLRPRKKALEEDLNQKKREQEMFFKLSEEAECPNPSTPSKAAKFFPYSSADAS
Experiment [7] deals with Glycogen synthase kinase-3 alpha (Homo sapiens) (UniProt P49840). The experiment in a line: Inhibition of GSK3A Lys2 labeling site in human A-375 cells at 5 uM by KiNativ Profiling analysis relative to control. It is filed as cell-based.
Sequence of Glycogen synthase kinase-3 alpha (Homo sapiens) (P49840 2-483 limits assumed): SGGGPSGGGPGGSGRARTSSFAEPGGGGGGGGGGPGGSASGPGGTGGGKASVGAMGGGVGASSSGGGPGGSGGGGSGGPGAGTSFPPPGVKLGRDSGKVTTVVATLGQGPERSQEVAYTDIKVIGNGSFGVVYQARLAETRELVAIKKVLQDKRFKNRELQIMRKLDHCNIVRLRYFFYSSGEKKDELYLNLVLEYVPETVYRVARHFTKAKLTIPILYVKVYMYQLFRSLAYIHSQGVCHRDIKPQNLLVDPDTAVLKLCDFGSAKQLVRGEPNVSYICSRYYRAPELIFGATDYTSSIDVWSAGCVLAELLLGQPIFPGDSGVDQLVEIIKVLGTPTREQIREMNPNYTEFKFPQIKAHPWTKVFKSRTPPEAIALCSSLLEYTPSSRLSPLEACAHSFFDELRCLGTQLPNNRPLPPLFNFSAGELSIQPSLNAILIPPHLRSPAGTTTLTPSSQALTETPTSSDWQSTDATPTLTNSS
The target in experiment [8] is Tyrosine-protein kinase Yes (Homo sapiens) (UniProt P07947). The experiment in a line: Inhibition of YES ACT labeling site in human A-375 cells at 5 uM by KiNativ Profiling analysis relative to control. The class given is cell-based.
Sequence of Tyrosine-protein kinase Yes (Homo sapiens) (P07947 2-543 limits assumed): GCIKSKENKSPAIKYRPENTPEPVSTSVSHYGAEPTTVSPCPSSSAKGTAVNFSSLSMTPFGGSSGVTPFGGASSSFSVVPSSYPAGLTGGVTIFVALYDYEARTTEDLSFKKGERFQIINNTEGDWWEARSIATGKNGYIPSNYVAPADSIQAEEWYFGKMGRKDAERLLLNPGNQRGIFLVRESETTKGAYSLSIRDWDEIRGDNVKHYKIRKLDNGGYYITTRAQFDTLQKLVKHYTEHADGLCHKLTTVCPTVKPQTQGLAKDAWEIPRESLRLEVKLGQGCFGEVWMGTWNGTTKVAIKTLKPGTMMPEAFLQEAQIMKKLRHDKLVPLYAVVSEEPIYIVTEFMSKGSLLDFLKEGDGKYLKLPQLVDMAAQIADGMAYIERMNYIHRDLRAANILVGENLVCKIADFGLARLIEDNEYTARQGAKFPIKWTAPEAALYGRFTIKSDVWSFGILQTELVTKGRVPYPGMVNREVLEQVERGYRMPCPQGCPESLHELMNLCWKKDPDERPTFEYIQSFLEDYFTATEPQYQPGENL
The target in experiment [9] is Tyrosine-protein kinase Fyn (Homo sapiens) (UniProt P06241). The experiment in a line: Inhibition of FYN ACT labeling site in human A-375 cells at 5 uM by KiNativ Profiling analysis relative to control. It is filed as cell-based.
Sequence of Tyrosine-protein kinase Fyn (Homo sapiens) (P06241 2-537 limits assumed): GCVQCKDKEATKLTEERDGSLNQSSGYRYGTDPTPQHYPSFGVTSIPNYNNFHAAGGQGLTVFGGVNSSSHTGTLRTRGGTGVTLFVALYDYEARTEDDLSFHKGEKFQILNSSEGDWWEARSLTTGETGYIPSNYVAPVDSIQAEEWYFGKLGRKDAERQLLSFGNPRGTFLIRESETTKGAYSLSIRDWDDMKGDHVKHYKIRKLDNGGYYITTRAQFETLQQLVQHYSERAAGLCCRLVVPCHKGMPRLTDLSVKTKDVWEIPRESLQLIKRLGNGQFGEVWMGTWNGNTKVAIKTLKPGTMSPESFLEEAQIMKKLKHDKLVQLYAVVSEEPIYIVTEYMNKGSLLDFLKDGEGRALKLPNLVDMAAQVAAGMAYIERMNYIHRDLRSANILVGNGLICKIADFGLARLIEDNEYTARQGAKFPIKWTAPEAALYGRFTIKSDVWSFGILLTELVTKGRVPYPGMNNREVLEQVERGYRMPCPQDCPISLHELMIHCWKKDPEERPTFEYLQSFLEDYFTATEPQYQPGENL
The target in experiment [10] is Serine/threonine-protein kinase mTOR (Homo sapiens) (UniProt P42345). The experiment in a line: Inhibition of FRAP ATP labeling site in human A-375 cells at 5 uM by KiNativ Profiling analysis relative to control. It is filed as cell-based.
Experiment [11] addresses T2, Serine/threonine-protein kinase Nek9 (Homo sapiens) (UniProt Q8TD19).
T2 sequence (whole entry): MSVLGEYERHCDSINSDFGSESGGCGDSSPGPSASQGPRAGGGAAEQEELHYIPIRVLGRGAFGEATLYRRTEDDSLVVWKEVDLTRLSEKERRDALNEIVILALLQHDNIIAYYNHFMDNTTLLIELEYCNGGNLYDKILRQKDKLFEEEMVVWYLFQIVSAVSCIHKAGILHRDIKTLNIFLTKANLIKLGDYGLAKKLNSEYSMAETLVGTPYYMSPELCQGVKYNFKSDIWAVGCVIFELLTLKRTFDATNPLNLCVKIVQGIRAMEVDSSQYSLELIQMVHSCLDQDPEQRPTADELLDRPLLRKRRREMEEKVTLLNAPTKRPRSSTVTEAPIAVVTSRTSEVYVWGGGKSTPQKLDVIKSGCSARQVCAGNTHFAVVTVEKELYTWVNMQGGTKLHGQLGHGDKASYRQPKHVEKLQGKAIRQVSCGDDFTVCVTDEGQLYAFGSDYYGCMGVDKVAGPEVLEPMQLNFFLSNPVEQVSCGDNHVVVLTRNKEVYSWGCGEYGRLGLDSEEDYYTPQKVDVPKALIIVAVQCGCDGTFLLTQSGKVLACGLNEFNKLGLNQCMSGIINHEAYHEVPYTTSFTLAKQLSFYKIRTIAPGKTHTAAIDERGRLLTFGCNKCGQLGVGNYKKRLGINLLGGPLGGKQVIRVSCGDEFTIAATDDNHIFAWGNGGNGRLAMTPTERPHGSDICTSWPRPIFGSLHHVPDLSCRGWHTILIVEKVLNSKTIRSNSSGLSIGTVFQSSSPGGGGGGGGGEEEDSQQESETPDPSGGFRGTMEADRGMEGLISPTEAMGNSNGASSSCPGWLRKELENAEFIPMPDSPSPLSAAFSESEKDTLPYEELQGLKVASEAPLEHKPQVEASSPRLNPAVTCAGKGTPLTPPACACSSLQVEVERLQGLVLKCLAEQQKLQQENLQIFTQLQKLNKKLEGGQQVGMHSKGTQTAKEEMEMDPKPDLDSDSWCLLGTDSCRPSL
The experiment in a line: Inhibition of NEK9 Lys1 labeling site harbouring TEDDSLVVWKEVDLTR in human A-375 cells at 0.05 uM by KiNativ Profiling analysis relative to control. It is filed as cell-based.

Experiment [12] has as its target Mitogen-activated protein kinase 9 (Homo sapiens, UniProt P45984). The experiment in a line: Inhibition of JNK2 Lys2 labeling site in human A-375 cells at 0.05 uM by KiNativ Profiling analysis relative to control. The class given is cell-based.
Experiment [13] addresses Calcium/calmodulin-dependent protein kinase type 1 (Homo sapiens) (UniProt Q14012). Kind of experiment: Inhibition of CAMK1 alpha Lys1 labeling site in human Huh-7 cell lysate at 1 uM by KiNativ Profiling analysis relative to control. It is filed as subcellular.

Sequence of Calcium/calmodulin-dependent protein kinase type 1 (Homo sapiens) (Q14012 whole entry, looked up): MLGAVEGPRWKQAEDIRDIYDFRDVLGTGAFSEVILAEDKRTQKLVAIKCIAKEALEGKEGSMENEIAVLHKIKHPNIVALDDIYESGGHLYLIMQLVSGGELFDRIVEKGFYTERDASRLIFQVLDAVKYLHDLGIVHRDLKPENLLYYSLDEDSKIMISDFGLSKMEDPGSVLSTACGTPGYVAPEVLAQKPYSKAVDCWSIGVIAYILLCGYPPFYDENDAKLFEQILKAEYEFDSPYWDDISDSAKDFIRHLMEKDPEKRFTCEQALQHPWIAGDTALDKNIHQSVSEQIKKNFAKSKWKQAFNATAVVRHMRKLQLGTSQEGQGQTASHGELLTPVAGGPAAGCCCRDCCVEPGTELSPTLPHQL
Sequence of Mitogen-activated protein kinase 9 (P45984 whole entry, looked up): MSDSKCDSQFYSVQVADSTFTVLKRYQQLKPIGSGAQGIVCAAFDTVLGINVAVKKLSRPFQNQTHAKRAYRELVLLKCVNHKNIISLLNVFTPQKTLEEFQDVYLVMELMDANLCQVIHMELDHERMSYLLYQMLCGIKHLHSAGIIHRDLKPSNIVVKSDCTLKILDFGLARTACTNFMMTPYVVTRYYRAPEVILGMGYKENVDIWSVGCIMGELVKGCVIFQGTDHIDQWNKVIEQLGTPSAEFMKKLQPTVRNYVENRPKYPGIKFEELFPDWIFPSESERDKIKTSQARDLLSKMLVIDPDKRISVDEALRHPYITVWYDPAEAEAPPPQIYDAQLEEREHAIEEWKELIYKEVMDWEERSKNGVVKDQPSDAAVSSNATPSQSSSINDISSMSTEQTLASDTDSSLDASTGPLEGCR

In the case of `CCN1CCN(Cc2ccc(NC(=O)c3ccc(C)c(/C=C/c4cnc5[nH]ccc5c4OC)c3)cc2C(F)(F)F)CC1`, the inhibition is 37.6% in [1]; 1.8% in experiment [2]; 80.5% in [3]; 7.3% in experiment [4]; 2.9% in experiment [5]; 60.7% in experiment [6]. In addition, the inhibition is 31.7% in experiment [7]; over 99% in experiment [8]; over 99% in experiment [9]; -9.4% in [10]; -2.6% in experiment [11]; 23.9% in experiment [12].

Turning to `CCN1CCN(Cc2ccc(NC(=O)c3ccc(C)c(Oc4ccnc5[nH]ccc45)c3)cc2C(F)(F)F)CC1`, the inhibition is 8.8% in experiment [1]; -3.9% in experiment [2]; 74.1% in experiment [3]; -3% in experiment [4]; 47.1% in [5]; 71.7% in experiment [6]. Moreover, the inhibition in experiment [7] was 33.7%; in experiment [8] it was 89.6%; in experiment [9], 89.6%; in experiment [10] it was -0.1%; in experiment [11], 18.9%; in experiment [12], 50.3%.

For `CNc1cc(Oc2cc(C(=O)Nc3cc(-n4cnc(C)c4)cc(C(F)(F)F)c3)ccc2C)ncn1`, the inhibition in [13] was found to be 5%.

Turning to `CNc1cc(Oc2cc(C(=O)Nc3cc(N4CCN(C)CC4)cc(C(F)(F)F)c3)ccc2C)ncn1`, the inhibition in experiment [13] was 8.8%.
